Drawing on patent publication US11738006B2, “Pharmaceutical composition containing antifungal agent as active ingredient” (priority 2019, dated 2023), this text covers solubility for luliconazole for 1 compound.

The data set can be described thus: Test on solubility to polyethylene glycol (visual check for insoluble luliconazole). The class given is physicochemical. On the procedure: Examined was how luliconazole is dissolved by polyethylene glycol 200 having an average molecular weight of 190 to 210, polyethylene glycol 300 having an average molecular weight of 285 to 315, polyethylene glycol 400 having an average molecular weight of 380 to 420, and polyethylene glycol 600 having an average molecular weight of 570 to 630, each of which is represented by the formula HOCH2(CH2OCH2)nCH2OH (where n is an integer). To this end, the above polyethylene glycols (manufactured by NOF Corporation) were mixed with luliconazole according to the formulation presented in Table 1 below, and the properties of the solution (presence of insoluble matter (luliconazole)) were visually evaluated.

`N#C/C(=C1/SC[C@@H](c2ccc(Cl)cc2Cl)S1)n1ccnc1` [luliconazole, (R)-(−)-(E)-[4-(2,4-dichlorophenyl)-1,3-dithiolane-2-ylidene]-1-imidazolylacetonitrile]: the solubility for luliconazole result is, setting by setting: (in polyethylene glycol 400 compared to polyethylene glycol 200, 300 and 600) “highest solubility”; (in polyethylene glycols 200, 300, 400, and 600) “high solubility”.
